The record followed here is patent US12522836B2, “Nonhuman animal and use for same” (Inter-University Research Institute Corporation Research …, priority 2019, dated 2026).

The target in data set [1] is T1, OsTIR1(F74G)/mAID-EGFP-NLS expressing cell (Oryza sativa subsp. japonica, UniProt Q7XVM8, F74G).
T1 construct: expressed in transfected cells; host or cells: HCT116
Put plainly: FACS analysis of degradation of mAID-EGFP-NLS after addition of auxin analog. Type of data set: cell-based, human. Particulars: Example 2; 50 nM, 100 nM, 500 nM or 1 μM, 24 hours; compared with OsTIR1(WT) cell plus auxin. As to the method:
An HCT116 cell (human colon adenocarcinoma-derived cell) having DNA in which an OsTIR1(WT) gene or OsTIR1(F74G) gene and an mAID-EGFP (green fluorescent protein)-NLS (nuclear localization signal) gene were encoded through a P2A sequence inserted onto a chromosome by a transposon (hereinafter, referred to as “OsTIR1(WT)/mAID-EGFP-NLS expressing cell” or “OsTIR1(F74G)/mAID-EGFP-NLS expressing cell”) was prepared (refer to FIG. 1).
The auxin analog (concentration in culture medium: […]) was added to the OsTIR1(F74G)/mAID-EGFP-NLS expressing cell and cultured for 24 hours. In addition, as a control, a cell containing an auxin added to the OsTIR1(WT)/mAID-EGFP-NLS expressing cell was also prepared.
After 24 hours from the addition of the auxin analog, the cells were collected, and FACS analysis was performed.
An HCT116 cell (human colon adenocarcinoma-derived cell) in which a plasmid containing an OsTIR1(WT) gene or OsTIR1(F74G) gene was introduced and an mAID-EGFP (green fluorescent protein)-NLS (nuclear localization signal) gene was inserted onto a chromosome (hereinafter, referred to as “OsTIR1(WT)/mAID-EGFP-NLS expressing cell” or “OsTIR1(F74G)/mAID-EGFP-NLS expressing cell”) was prepared (refer to FIG. 1).
The auxin analog (concentration in culture medium: 0, 50 nM, 100 nM, 500 nM or 1 μM) was added to the OsTIR1(F74G)/mAID-EGFP-NLS expressing cell and cultured for 24 hours. […]
On the technique in general: A flow cytometer gives signals particle by particle.

Data set [2] has as its target T2, OsTIR1(F74G)/DHC1-mAID-Clover expressing cell (Oryza sativa subsp. japonica, UniProt Q7XVM8, F74G).
T2 construct: expressed in transfected cells; host or cells: HCT116 (OsTIR1 at AAVS1 locus; knock-in at the endogenous DHC1 gene)
Put plainly: Degradation induction test of DHC1 (microscopy, Western blotting). Type of data set: cell-based, human. The source says: In the HCT116 cell, an OsTIR1(WT) gene or OsTIR1(F74G) gene was introduced into an AAVS1 gene locus, which is a safe harbor site, using a CRISPR/Cas system, and an OsTIR1(WT)-expressed HCT116 cell or OsTIR1(F74G)-expressed HCT116 cell was constructed.
A plasmid vector having mAID, clover and a neomycin resistance gene and having a homologous sequence with respect to a DHC1 gene so as to sandwich mAID and the neomycin resistance gene was introduced into the OsTIR1(WT)-expressed HCT116 cell or OsTIR1(F74G)-expressed HCT116 cell using a CRISPR/Cas9 system, and homologous recombination with the endogenous DHC1 gene was performed. Next, after selection by G418, the formed colony was dyed using crystal violet. “DHC1” is the abbreviation for dynein heavy chain 1.
A degradation induction test of DHC1 was performed using the HCT116 cell expressing OsTIR1(F74G) on which homologous recombination had been performed in the above-described section 2 (hereinafter, referred to as “OsTIR1(F74G)/DHC1-mAID-Clover expressing cell”).
The compound indicated by the formula (I-2) (also referred to as 5-Ph-IAA) was added to the OsTIR1(F74G)/DHC1-mAID-Clover expressing cell, and the appearance of the cell after 24 hours was observed (FIG. 4(A)).
Furthermore, the degradation of DHC1 was confirmed by Western blotting (FIG. 4(B)).
Background: Immunoblotting shows a protein as a band on a membrane.

The target of a further data set is T3, mAID-BRD4 xenografts (Oryza sativa subsp. japonica, UniProt Q7XVM8, F74G).
T3 construct: expressed in transfected cells; host or cells: HCT116 CMV-OsTIR1(F74G), xenografted into nude mice
The experiment in a line: mAID-BRD4 cell xenograft tumor growth in nude mice. Type of data set: in vivo. The method, then: (§1) Subsequently, mAID-BRD4 cells or TOP2A-mAC cells were subcutaneously transplanted into nude mice and xenograft tumors were formed in 1 week. After that, 0, 1, 3, and 10 mg/kg of 5-Ph-IAA were intraperitoneally administered daily for an additional week (day 7 to day 14). […] It was confirmed that, when the AID2 system is used, mAID-BRD4 and TOP2A-mAC were successfully removed in a living body of mice, causing tumor suppression.
Furthermore, 3 mg/kg of 5-Ph-IAA was orally administered to nude mice in which mAID-BRD4 cells were xenografted. FIG. 13(A) is a diagram showing an oral administration schedule of 5-Ph-IAA.

For another data set, the target named is T4, mAID-EGFP reporters (Oryza sativa subsp. japonica, UniProt Q7XVM8, F74G).
T4 construct: expressed in transfected cells; host or cells: transgenic mice (organs and E13.5 embryos)
The experiment in a line: Reporter removal in transgenic mice expressing OsTIR1(F74G) and mAID-EGFP reporter. In kind it is in vivo. As to the method: In order to further confirm whether the AID2 system functioned in a living body of mice, an attempt to establish transgenic mice expressing OsTIR1(WT) or OsTIR1(F74G) together with mAID-EGFP reporters was performed. As shown in FIG. 11(A), OsTIR1(WT) was confirmed to cause embryonic lethality. In contrast, the establishment of a plurality of mouse strains expressing OsTIR1(F74G) and reporters was confirmed (refer to FIG. 11(A).
Two adult female transgenic mice from the same TG strain were used to remove reporters in a plurality of organs.
First, as shown in FIG. 11(B), the expression of reporters in the ovaries and fallopian tubes surgically removed from untreated transgenic mice was confirmed.
Subsequently, pseudo-administration is performed on one mouse and 10 mg/kg 5-ph-IAA was intraperitoneally administered to the other mouse. […] The same data was obtained for adult male mice derived from the same TG strain.
Finally, the expression of the reporter in embryos was examined to confirm a rate of removal of a target protein using the AID2 system in vivo. 5 mg/kg of 5-Ph-IAA was intraperitoneally administered to pregnant females with E13.5 embryos. As shown in FIG. 11(D), a reporter signal disappeared within 1 hour after administration and rapid removal of the reporter in vivo was confirmed.

In data set [3] the test system is OsTIR1(F74A)/mAID-EGFP-NLS-expressing cells. The experiment in a line: Reversibility of the AID2 system: reporter recovery after removal of 5-Ph-IAA. In kind it is cell-based. Particulars: medium replaced with medium without 5-Ph-IAA.
For a further data set, the target named is T5, mAID-EGFP-CENPH (Oryza sativa subsp. japonica, UniProt Q7XVM8, F74G).
T5 construct: P2A linker (self-cleaving; remnant); expressed in transfected cells; host or cells: HeLa
The experiment in a line: Western blotting of mAID-EGFP-CENPH degradation in HeLa cell (transposon vector + CRISPR-KO system). Type of data set: cell-based, human. Conditions: anti-CENPH antibody, endogenous CENPH knocked out. The source says: (§2) In this degradation system, (1) a transposon vector in which an OsTIR1(F74G) gene and an mAID-target gene are connected by a P2A linker gene and (2) a CRISPR-KO vector for knocking out an endogenous target gene containing gRNA and a Cas9 gene are contained.
(§3) In this degradation system, the OsTIR1(F74G) gene and the mAID-target gene in a genome are integrated by the transposon vector, and an endogenous target gene is knocked out by the CRISPR-KO vector.
(§4) The transposon vector in which an OsTIR1(F74G) gene and an mAID-EGFP-CENPH or mAID-EGFP-POLD1 target gene were connected by a P2A linker gene was constructed, and this vector was introduced into a HeLa cell together with the CRISPR-KO vector targeting an endogenous CENPH or POLD1 gene. 5-Ph-IAA was added to such a cell, and the degradation of the target protein was confirmed by Western blotting (FIG. 6).

Data set [4] relates to HCT116 cells expressing OsTIR1(F74G). The experiment in a line: Control xenograft of HCT116 cells expressing OsTIR1(F74G) in nude mice. In kind it is in vivo. Conditions: 1, 3 and 10 mg/kg intraperitoneally daily, day 7 to day 14; control without degron-tagged target.
Data set [5] in a line: Toxicity evaluation in mice (body weight). In kind it is in vivo. Conditions: 1, 3 and 10 mg/kg intraperitoneally daily for 1 week. The method, then:
Toxicity was evaluated by intraperitoneally administering 0, 1, 3, and 10 mg/kg of 5-Ph-IAA daily for 1 week. As shown in FIG. 7(B), a change in body weight of the mice which had been subjected to the administration was not observed.

The next data set addresses T6, mAID-EGFP-POLD1 (Oryza sativa subsp. japonica, UniProt Q7XVM8, F74G).
T6 construct: P2A linker (self-cleaving; remnant); expressed in transfected cells; host or cells: HeLa
Put plainly: Western blotting of mAID-EGFP-POLD1 degradation in HeLa cell (transposon vector + CRISPR-KO system). Particulars: anti-POLD1 antibody, clones #1 to #3, endogenous POLD1 knocked out. Type of data set: cell-based, human.
Source text: as §2, §3, §4

A further data set addresses T7, TOP2A-mAC xenografts (Oryza sativa subsp. japonica, UniProt Q7XVM8, F74G).
T7 construct: expressed in transfected cells; host or cells: HCT116 CMV-OsTIR1(F74G), xenografted into nude mice
Put plainly: TOP2A-mAC cell xenograft tumor growth in nude mice. Type of data set: in vivo. Conditions: 1, 3 and 10 mg/kg intraperitoneally daily, day 7 to day 14. The method, then: as §1

`O=C(O)Cc1c[nH]c2ccc(-c3ccccc3)cc12` [5-Ph-IAA, 5-phenyl-indole 3-acetic acid]: the “degradation of GFP (FACS) at low concentrations” value in data set [1] was “functioned at a considerably low concentration”. In addition, the “appearance of the cell (mitotic accumulation)” value in data set [2] (24 hours after addition) is given as “accumulation of cells in the mitotic period was observed”. Further, the “degradation of DHC1-mAID-Clover fused protein (microscopic images)” value in data set [2] (24 hours after addition) is given as “degraded a DHC1-mAID-Clover fused protein”. For the same compound, the “degradation of DHC1 and mAID by Western blotting” value in [2] (clones #1 to #3) was “degradation of DHC1 and mAID was confirmed”. Besides, the tumor suppression entry is “significant tumor suppression” on mAID-BRD4 xenografts (3 mg/kg orally); “significant tumor suppression” on mAID-BRD4 xenografts (1, 3 and 10 mg/kg intraperitoneally daily, day 7 to day 14); “the tumor suppression was not observed” in [4]; “a similar tendency was observed” at TOP2A-mAC xenografts. The “time to disappearance of reporter signal in embryos” value on mAID-EGFP reporters (5 mg/kg intraperitoneally to pregnant females with E13.5 embryos) is no more than 1 h. For the same compound, the “expression of the reporter in organs” value on mAID-EGFP reporters (10 mg/kg intraperitoneally, 6 hours after administration, ovary, fallopian tubes, small intestine, heart, bladder, brain, adult female) is on record as “significantly reduced”. In data set [3], the “time to full restoration of reporter expression after medium replacement” value was determined as 3 h. On mAID-EGFP-CENPH, the “degradation of mAID-EGFP-CENPH by Western blotting” value is listed as “degradation of mAID-EGFP-CENPH was confirmed”. Also, the “change in body weight” value in [5] is listed as “not observed”. In addition, the “degradation of mAID-EGFP-POLD1 by Western blotting” value at mAID-EGFP-POLD1 is reported as “degradation of mAID-EGFP-POLD1 was confirmed”.
